Experiments:
[1] = system: OVX rats; test: Treatment of osteopenia in OVX rats using rat TSH (Example 2B); type: in vivo
Protocol: A similar study following essentially the same dosing regimens. was performed using the native rat TSH in OVX rats. […] Rat TSH with a specific activity of approximately 90 lU/mg was obtained from the Scripps Institute. Bone mineral monitoring in vivo and serum and urine biochemical analyses were performed essentially as described in Example 3A.
Biochemical assays—Urinary levels of deoxypyridinoline cross-links and creatinine (DPD and Cr, respectively) are analyzed in duplicate using rat ELISA kits from Metrobiosystems (Mountain View, Calif., USA). Serum levels of osteocalcin (OSC) are measured using a rat sandwich ELISA kit from Biomedical Technologies (Stroughton, Mass., USA). The manufacturer's protocols are followed, and all samples are assayed in duplicate. A standard curve is generated from each kit, and the absolute concentrations are extrapolated from the standard curve. […]
The complete secondary spongiosa of the proximal tibia is evaluated, thereby completely avoiding sampling errors incurred by random deviations of a single section. […] From the binarized images, structural indices are assessed with three-dimensional (3D) techniques for trabecular bone.
Relative bone volume, trabecular number, thickness, and separation are calculated by measuring 3D distances directly in the trabecular network and taking the mean over all voxels.
Bone surface is calculated from a tetrahedron meshing technique. By displacing the surface of the structure in infinitesimal amounts, the structure model index (SMI) is calculated. The SMI quantifies the plate versus rod characteristics of trabecular bone, in which an SMI of 0 pertains to a purely plate-shaped bone, an SMI of 3 designates a purely rod-like bone, and values between stand for mixtures of plates and rods. Furthermore, connectivity density based on the Euler number is determined. In addition, a 3D cubical voxel model of bone is built, and cortical thickness is measured.

[2] = system: ovariectomized (OVX) rats; test: Bone restoration study in ovariectomized rats with native rat TSH (Example 3B); type: in vivo
Protocol: To confirm that TSH has an anabolic effect on bone, a restoration study was performed, Native rat TSH was administered seven months after ovariectomy essentially following a similar dose and dosing regimen as described in Example 2B except that administration of TSH was extended until 16 weeks.
Twelve animals were sham operated, while forty eight were ovariectomized (OVX) bilaterally by abdominal approach. Treatment started six weeks after ovariectomy as follows: (1) SHAM (n=12); (2) OVX+vehicle (n=12); (3) OVX+0.01 μg (n=12); (3) OVX+0.1 μg (n=12); and (4) OVX+0.3 μg (n=12).
Bone mineral density monitoring in vivo and ex vivo and serum and urine biochemical analyses were performed essentially as described in Example 3A. Eight-month old rats were ovariectomized and then left for seven months to lose bone. Therapy was then started and continued for 16 weeks and BMD was measured both in vivo and ex vivo, and microCT and serum biochemistry were performed.

[3] = obtained from the Scripps Institute; cited from earlier work
[4] = system: thyroid; conditions: in rats; cited from earlier work
[5] = in particular with 0.1 and 0.3 μg/rat

## rat TSH: native rat TSH obtained from the Scripps Institute
[1]; 0.01, 0.1, 0.3 μg per rat, in vivo total body, hind limbs, lumbar BMD, ex vivo proximal femur and tibia BMD, microCT
  bone loss associated with ovariectomy: effective in preventing the bone loss
[1]; indicates anti-resorptive activity
  serum collagen C-telopeptide: reduction
[1]; rat, in vivo
  effective concentration in the rat relative to human TSH: effective in the rat at lower concentration than human TSH
[2]; 0.01 μg/rat, 12 and 16 weeks time points
  BMD values of hind limbs in vivo: did not induce a measurable effect
[2]; 0.1 μg/rat
  cortical thickness above ovariectomized rats: 14%
  cortical thickness above sham animal values: ~10%
[2]; 0.3 μg
  ex vivo proximal femur BMD (DEXA): increased
[2]; 0.1 and 0.3 μg/rat
  cortical thickness (microCT): increased
[2]; 0.1 and 0.3 μg/rat, FIG. 14
  BMD values of hind limbs in vivo: increased
[2]; all three doses tested (0.01, 0.1, 0.3 μg)
  bone volume of long bones and the spine (microCT, trabecular bone ex vivo): increased
[2]; [5]
  ex vivo lumbar spine BMD: increased
  ex vivo tibia BMD: increased
[2]; lesser extent than trabecular thickness
  trabecular number (microCT): increased
[2]; rat, in vivo
  T3 and T4 serum levels: no measurable increase
  ex vivo distal femur BMD (DEXA): slightly increased
  ex vivo total femur BMD (DEXA): slightly increased
[2]; vs sham and ovariectomized rats
  trabecular thickness (microCT): significantly increased
[3]
  specific activity: approximately 90 lU/mg
[4]
  effectiveness in stimulating thyroid hormone production compared to human recombinant TSH: 10-20 times

From US20060052303A1, “Use of thyrotropin for regeneration of bone” (priority 2004, published 2006)
